Laboratory results as given in US20260217719A1, “CDK2 INHIBITORS” (BLUEPRINT MEDICINES CORPORATION, priority 2023, published 2026).

Experiments:
CDK1/Cyclin B1, GST-tag = target: T1, CDK1/Cyclin B1, GST-tag (Homo sapiens, UniProt P06493); assay: Enzymatic phosphorylation activity assay (Caliper mobility shift), CDK1/Cyclin B1; format: biochemical; settings: read-out: Enzyme CDK1/cyclin B1 IC50
T1 construct: GST; purchased BPS 40454
Method: (§1) Inhibitory effects of the compounds of the disclosure were measured in biochemical assays that measure the enzymatic phosphorylation activity of CDK enzyme in complex of Cyclin proteins phosphorylates 7.5 micromolar fluorescently labelled peptide substrate, 5-FAM-QSPKKG-CONH2, (FL-Peptide 18, Perkin Elmer, 760362) in the presence of adenosine-5′-triphosphate (ATP) and varying concentrations of the test compound in 100 mM 2-[4-(2-hydroxyethyl)piperazin-1-yl] ethanesulfonic acid (HEPES), pH 7.5, 10 mM MgCl2, 0.015% Brij-35, 1 mM dithiothreitol (DTT), 1.0% dimehylsulfoxide (DMSO). […] Reactions proceeded until between 10% to 20% total peptides were phosphorylated at room temperature (25° C.) and were terminated with 35 mM 2,2′,2″,2″-(ethane-1,2-diyldinitrilo)tetraacetic acid (EDTA). Product was detected using the Caliper mobility shift detection method where the phosphorylated peptide (product) and substrate were electrophoretically separated and measured. Percent activity was plotted against log concentration of compound and points to generate an apparent IC50. The following CDK enzymes in complex with different cyclin proteins were used in these assays: • CDK1/Cyclin B1, GST-tag (BPS, 40454), 1.5 nM used in the assay • CDK2/Cyclin E (Eurofins, 14-475), 1.25 nM used in the assays

CDK2/Cyclin E = target: T2, CDK2/Cyclin E (Homo sapiens, UniProt P24941); assay: Enzymatic phosphorylation activity assay (Caliper mobility shift), CDK2/Cyclin E; format: biochemical; settings: read-out: Enzyme CDK2/cyclin E IC50
T2 construct: purchased Eurofins 14-475
Method: as §1

T1 sequence (P06493 whole entry): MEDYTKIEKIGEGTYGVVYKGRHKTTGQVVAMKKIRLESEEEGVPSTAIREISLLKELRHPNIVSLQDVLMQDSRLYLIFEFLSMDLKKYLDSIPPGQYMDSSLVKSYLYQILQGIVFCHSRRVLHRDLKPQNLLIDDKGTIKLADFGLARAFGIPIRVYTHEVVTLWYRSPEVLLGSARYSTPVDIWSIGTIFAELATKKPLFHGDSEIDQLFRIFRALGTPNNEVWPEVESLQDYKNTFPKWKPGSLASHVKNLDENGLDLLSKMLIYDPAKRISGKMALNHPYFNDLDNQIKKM
T1 sequence (P14635 whole entry partner): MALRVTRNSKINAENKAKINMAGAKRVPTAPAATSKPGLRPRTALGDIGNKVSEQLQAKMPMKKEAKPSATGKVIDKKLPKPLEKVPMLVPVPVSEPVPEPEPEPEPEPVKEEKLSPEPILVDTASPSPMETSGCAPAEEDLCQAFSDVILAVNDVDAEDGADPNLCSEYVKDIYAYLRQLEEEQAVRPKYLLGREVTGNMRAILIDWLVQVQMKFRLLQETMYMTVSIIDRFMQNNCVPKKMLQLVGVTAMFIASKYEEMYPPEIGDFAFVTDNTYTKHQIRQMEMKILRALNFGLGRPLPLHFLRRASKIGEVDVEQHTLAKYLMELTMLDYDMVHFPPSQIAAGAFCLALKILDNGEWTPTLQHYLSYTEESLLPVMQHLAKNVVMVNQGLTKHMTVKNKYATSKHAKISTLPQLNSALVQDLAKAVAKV

## CC(C)c1cc(Nc2cnc3ccn([C@H](C)c4cccnc4)c3n2)n[nH]1 [Example 4, (R)—N-(5-isopropyl-1H-pyrazol-3-yl)-5-(1-(pyridin-3-yl)ethyl)-5H-pyrrolo[2,3-b]pyrazin-3-amine]
CDK1/Cyclin B1, GST-tag
  IC50: 54 nM
CDK2/Cyclin E
  IC50: 0.31 nM

## CC(C)c1cc(Nc2cnc3ccn(CC4CCOCC4)c3n2)n[nH]1 [Example 1, N-(5-isopropyl-1H-pyrazol-3-yl)-5-((tetrahydro-2H-pyran-4-yl)methyl)-5H-pyrrolo[2,3-b]pyrazin-3-amine]
CDK1/Cyclin B1, GST-tag
  IC50: 115 nM
CDK2/Cyclin E
  IC50: 0.44 nM
